We go through one compound from PMC7180948, “New Insights into 4-Anilinoquinazolines as Inhibitors of Cardiac Troponin I–Interacting Kinase (TNNi3K)” (Molecules, 2020).

SMILES strings stand for the structures.

Assay in all cases: biochemical
Common to all, as to set-up: KINOMEscan competition binding panel (Eurofins DiscoverX), single concentration, % inhibition

The target of one test is FLT3(K663Q) (Homo sapiens, UniProt P36888, K663Q). The note with it: read-out: 7 at 1 µM % inhibition. The method, boiled down: (§1)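 KINOMEscan selectivity screen; >400 human kinases; compound at 1 µM, single concentration.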
In the next test the target is FLT3-autoinhibited (Homo sapiens, UniProt P36888). The following applies: read-out: 7 at 1 µM % inhibition. The essentials:
as §1

Another test concerns the target T1, ADCK4 (Homo sapiens, UniProt Q96D53).
T1 construct: gene COQ8B
The following applies: read-out: 7 at 1 µM % inhibition. The essentials:
as §1

The target in a further test is FGFR4 (Homo sapiens, UniProt P22455). The note with it: read-out: 7 at 1 µM % inhibition. The essentials: as §1
Another test has as its target CSF1R (Homo sapiens, UniProt P07333). The following applies: read-out: 7 at 1 µM % inhibition. The essentials:
as §1

Another test addresses MAPKAPK2 (Homo sapiens, UniProt P49137). The note with it: read-out: 7 at 1 µM % inhibition. The method, boiled down: as §1
The next test addresses ABL2 (Homo sapiens, UniProt P42684). The following applies: read-out: 7 at 1 µM % inhibition. The essentials:
as §1

A further test deals with LTK (Homo sapiens, UniProt P29376). The following applies: read-out: 7 at 1 µM % inhibition. The essentials: as §1
In a further test the target is TAOK3 (Homo sapiens, UniProt Q9H2K8). The note with it: read-out: 7 at 1 µM % inhibition. The essentials: as §1
For the next test, the target named is T2, DLK (Homo sapiens, UniProt Q12852).
T2 construct: gene MAP3K12
The following applies: read-out: 7 at 1 µM % inhibition. The method, boiled down:
as §1

In another test the target is T3, PIP5K2C (Homo sapiens, UniProt Q8TBX8).
T3 construct: gene PIP4K2C
T3 sequence (Q8TBX8 whole entry): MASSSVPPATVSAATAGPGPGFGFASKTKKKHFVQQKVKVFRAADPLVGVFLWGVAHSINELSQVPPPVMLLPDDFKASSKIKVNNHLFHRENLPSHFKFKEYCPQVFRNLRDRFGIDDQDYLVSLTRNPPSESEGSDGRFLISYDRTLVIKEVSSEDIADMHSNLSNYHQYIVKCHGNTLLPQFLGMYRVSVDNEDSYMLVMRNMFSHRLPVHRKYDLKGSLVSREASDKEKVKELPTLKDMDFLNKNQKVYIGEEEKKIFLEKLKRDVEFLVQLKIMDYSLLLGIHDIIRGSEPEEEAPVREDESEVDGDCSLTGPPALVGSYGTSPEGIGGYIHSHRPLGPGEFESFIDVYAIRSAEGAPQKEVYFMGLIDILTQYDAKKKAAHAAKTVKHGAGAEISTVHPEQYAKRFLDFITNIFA
The note with it: read-out: 7 at 1 µM % inhibition. The method, boiled down:
as §1

The target of another test is EGFR(G719S) (Homo sapiens, UniProt P00533, G719S). The following applies: read-out: 7 at 1 µM % inhibition. The essentials:
as §1

The next test has as its target ACVR1B (Homo sapiens, UniProt P36896). The note with it: read-out: 7 at 1 µM % inhibition. The method, boiled down:
as §1

For a further test, the target named is T4, p38-delta (Homo sapiens, UniProt O15264).
T4 construct: gene MAPK13
The following applies: read-out: 7 at 1 µM % inhibition. The method, boiled down:
as §1

The next test addresses EPHA8 (Homo sapiens, UniProt P29322). The note with it: read-out: 7 at 1 µM % inhibition. The essentials:
as §1

In a further test the target is FGFR3(G697C) (Homo sapiens, UniProt P22607, G697C). The following applies: read-out: 7 at 1 µM % inhibition. The method, boiled down:
as §1

Another test concerns the target KIT(V559D) (Homo sapiens, UniProt P10721, V559D). The note with it: read-out: 7 at 1 µM % inhibition. The essentials:
as §1

The target of the next test is PIK3CA(E542K) (Homo sapiens, UniProt P42336, E542K). The note with it: read-out: 7 at 1 µM % inhibition. The essentials:
as §1

The target in the next test is T5, PFPK5(P.falciparum) (Plasmodium falciparum, UniProt P61075).
T5 construct: gene CRK2
T5 sequence (P61075 whole entry): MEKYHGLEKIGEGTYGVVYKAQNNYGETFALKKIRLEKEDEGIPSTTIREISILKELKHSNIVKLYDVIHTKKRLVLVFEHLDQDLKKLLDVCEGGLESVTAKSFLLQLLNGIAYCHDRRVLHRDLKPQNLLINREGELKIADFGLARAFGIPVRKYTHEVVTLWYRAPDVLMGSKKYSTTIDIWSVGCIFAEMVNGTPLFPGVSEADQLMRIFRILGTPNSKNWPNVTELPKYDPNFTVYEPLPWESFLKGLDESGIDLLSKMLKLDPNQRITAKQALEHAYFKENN
The note with it: read-out: 7 at 1 µM % inhibition (pathogen kinases). The method, boiled down: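 Values come from single-concentration (1 µM) profiling in the Eurofins DiscoverX KINOMEscan competition-binding platform, which covers over 400 kinases.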

The next test deals with T6, PYK2 (Homo sapiens, UniProt Q14289).
T6 construct: gene PTK2B
The following applies: read-out: 7 at 1 µM % inhibition. The method, boiled down:
as §1

A further test deals with FLT3(D835Y) (Homo sapiens, UniProt P36888, D835Y). The note with it: read-out: 7 at 1 µM % inhibition. The essentials:
as §1

A further test deals with T7, SIK (Homo sapiens, UniProt P57059).
T7 construct: gene SIK1
T7 sequence (P57059 whole entry): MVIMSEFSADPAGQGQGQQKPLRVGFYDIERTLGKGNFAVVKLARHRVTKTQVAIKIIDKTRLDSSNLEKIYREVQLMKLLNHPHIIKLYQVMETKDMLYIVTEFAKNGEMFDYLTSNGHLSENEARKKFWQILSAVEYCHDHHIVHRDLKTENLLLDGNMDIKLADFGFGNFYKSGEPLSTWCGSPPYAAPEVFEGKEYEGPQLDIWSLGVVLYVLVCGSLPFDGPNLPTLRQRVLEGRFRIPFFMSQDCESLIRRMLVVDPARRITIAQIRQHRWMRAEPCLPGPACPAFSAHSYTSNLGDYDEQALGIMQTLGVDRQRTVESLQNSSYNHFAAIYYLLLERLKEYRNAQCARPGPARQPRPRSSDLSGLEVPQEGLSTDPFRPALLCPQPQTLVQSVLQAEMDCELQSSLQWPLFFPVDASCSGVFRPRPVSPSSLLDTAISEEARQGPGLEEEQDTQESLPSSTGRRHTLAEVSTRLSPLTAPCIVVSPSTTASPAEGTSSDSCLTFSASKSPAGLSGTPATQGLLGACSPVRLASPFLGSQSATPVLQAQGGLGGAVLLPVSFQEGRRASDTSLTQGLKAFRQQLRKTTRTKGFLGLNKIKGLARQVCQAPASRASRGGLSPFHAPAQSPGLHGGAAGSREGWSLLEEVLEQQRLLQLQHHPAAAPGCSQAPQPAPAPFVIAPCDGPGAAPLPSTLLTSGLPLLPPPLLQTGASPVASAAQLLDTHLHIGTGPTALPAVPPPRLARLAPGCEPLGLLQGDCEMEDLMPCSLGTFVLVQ
The note with it: read-out: 7 at 1 µM % inhibition. The essentials: as §1

The target in the next test is FGFR1 (Homo sapiens, UniProt P11362). The following applies: read-out: 7 at 1 µM % inhibition. The method, boiled down: as §1
The target in another test is CDKL1 (Homo sapiens, UniProt Q00532). The following applies: read-out: 7 at 1 µM % inhibition. The method, boiled down:
as §1

EGFR(G719S), sequence (P00533 whole entry G719S): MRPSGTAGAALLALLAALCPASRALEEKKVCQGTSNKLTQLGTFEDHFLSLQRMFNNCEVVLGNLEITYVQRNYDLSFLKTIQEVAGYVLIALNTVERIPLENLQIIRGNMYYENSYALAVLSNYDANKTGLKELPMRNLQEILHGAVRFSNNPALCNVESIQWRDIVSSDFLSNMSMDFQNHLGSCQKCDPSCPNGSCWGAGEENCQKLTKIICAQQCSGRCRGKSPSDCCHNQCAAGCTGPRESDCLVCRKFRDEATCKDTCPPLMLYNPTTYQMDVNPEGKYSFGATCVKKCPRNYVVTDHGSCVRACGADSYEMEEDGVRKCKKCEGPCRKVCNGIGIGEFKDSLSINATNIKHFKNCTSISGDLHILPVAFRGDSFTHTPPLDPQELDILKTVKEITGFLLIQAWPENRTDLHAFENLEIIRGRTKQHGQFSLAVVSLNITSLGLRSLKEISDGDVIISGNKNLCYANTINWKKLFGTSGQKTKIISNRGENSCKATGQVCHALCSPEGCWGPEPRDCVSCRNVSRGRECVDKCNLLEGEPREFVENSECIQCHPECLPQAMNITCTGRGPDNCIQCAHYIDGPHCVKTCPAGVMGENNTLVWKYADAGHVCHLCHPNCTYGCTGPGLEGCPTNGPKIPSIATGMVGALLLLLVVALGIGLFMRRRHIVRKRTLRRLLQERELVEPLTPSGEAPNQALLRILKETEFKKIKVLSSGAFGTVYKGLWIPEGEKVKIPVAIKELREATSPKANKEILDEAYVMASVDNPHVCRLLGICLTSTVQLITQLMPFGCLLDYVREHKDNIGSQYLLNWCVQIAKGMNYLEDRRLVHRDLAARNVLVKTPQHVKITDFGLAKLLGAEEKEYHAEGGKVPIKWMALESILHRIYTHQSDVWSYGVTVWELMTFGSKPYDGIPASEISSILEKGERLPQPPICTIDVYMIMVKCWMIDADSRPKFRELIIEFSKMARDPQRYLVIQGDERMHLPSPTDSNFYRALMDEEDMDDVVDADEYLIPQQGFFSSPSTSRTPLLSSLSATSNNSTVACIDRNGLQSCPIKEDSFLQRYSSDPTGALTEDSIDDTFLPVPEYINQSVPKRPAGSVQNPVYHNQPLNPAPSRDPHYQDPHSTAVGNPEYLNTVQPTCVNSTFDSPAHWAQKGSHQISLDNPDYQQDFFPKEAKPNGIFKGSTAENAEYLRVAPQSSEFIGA
CSF1R, sequence (P07333 whole entry): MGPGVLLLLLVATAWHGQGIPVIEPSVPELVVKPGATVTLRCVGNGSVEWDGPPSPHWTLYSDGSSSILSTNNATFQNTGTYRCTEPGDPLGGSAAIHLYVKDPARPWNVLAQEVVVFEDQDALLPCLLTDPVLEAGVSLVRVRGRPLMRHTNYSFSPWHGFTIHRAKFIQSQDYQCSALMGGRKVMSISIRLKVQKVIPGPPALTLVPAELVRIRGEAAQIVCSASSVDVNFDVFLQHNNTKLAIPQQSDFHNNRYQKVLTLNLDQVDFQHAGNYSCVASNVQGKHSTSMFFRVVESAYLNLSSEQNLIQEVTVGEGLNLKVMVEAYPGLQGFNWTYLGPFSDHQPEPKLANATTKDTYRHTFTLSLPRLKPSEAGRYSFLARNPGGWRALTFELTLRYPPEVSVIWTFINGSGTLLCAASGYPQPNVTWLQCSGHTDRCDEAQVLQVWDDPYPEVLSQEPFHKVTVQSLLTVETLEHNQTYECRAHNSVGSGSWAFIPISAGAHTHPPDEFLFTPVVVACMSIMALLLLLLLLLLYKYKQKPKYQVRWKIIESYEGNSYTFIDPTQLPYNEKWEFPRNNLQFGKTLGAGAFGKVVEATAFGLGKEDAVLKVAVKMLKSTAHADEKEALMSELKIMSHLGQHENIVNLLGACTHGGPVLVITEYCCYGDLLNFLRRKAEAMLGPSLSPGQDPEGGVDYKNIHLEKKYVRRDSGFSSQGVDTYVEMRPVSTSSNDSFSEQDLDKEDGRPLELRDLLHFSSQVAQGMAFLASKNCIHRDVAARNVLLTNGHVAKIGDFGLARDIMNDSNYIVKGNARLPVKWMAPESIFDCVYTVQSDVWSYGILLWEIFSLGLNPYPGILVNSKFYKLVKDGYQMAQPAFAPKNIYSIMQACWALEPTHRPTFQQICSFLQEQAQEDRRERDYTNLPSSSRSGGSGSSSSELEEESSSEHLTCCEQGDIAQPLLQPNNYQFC
EPHA8, sequence (P29322 whole entry): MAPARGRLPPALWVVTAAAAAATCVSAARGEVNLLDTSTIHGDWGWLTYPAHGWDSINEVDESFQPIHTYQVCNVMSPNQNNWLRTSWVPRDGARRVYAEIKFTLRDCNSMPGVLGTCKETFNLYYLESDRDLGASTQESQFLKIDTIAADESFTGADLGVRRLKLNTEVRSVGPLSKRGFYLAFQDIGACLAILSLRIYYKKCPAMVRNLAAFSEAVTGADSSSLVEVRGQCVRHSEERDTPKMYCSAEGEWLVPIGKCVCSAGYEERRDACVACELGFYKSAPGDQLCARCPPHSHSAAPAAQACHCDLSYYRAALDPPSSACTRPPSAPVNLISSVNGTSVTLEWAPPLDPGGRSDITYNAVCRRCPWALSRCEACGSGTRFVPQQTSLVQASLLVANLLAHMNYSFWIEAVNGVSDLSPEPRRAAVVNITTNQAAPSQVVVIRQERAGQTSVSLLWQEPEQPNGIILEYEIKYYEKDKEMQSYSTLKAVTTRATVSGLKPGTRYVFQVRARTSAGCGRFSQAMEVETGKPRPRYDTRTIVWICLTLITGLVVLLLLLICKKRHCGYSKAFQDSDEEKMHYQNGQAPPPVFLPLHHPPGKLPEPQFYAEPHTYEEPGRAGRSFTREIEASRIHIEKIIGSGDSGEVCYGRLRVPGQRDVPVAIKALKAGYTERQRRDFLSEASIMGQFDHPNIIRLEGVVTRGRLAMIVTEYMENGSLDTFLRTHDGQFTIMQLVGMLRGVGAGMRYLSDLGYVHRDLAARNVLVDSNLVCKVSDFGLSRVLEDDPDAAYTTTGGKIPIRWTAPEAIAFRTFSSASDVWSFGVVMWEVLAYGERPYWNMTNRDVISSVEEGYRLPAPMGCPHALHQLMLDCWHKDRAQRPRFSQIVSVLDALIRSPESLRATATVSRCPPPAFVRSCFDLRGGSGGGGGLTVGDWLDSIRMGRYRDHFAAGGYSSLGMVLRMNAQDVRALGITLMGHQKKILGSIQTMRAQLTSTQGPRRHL
CDKL1, sequence (Q00532 whole entry): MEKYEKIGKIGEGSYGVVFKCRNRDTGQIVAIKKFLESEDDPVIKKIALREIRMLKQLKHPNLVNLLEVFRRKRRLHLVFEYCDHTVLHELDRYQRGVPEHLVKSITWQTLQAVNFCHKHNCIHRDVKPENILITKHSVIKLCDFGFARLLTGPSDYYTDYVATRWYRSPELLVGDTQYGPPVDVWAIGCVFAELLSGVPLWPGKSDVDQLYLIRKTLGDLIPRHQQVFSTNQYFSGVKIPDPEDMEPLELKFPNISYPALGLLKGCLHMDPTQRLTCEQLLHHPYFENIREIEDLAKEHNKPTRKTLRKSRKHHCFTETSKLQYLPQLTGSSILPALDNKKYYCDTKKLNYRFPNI

`CNS(=O)(=O)c1ccc(N(C)C)c(Nc2ncnc3cc(OC)c(OC)cc23)c1` [compound 7, 3-((6,7-dimethoxyquinazolin-4-yl)amino)-4-(dimethylamino)-N-methylbenzenesulfonamide]: the inhibition – broadly, how much of the control response was suppressed – at 1 µM at FLT3(K663Q) is 7%; on FLT3-autoinhibited, 12%; at ADCK4, 0%; on FGFR4, 0%; on CSF1R, 22%; on MAPKAPK2 it was 0%. Besides, the inhibition at 1 µM on ABL2 is 0%; on LTK it was 44%; at TAOK3 it was 29%; on DLK, 21%; at PIP5K2C, 0%; on EGFR(G719S), 0%. Moreover, the inhibition at 1 µM at ACVR1B was 0%; on p38-delta, 0%; at EPHA8, 0%; at FGFR3(G697C), 0%; on KIT(V559D), 28%; at PIK3CA(E542K), 17%. Moreover, the inhibition at 1 µM on PFPK5(P.falciparum) is 6%; on PYK2 it was 0%; on FLT3(D835Y) it was 13%; at SIK it was 17%; on FGFR1, 20%; on CDKL1, 0%.
